Data from patent US5340800A, “Peptide medicaments for the treatment of disease” (priority 1992, dated 1994).
Read-outs that look alike come from different tables or passages of the source. No end group written: not given here.

System: polymorphonuclear leukocyte adhesion to TNF activated endothelial cells
Assay type: cell-based, human
Conditions: for Average % Change of PMN Adhesion to TNF Activated ECs: average over PMN donors (# donors in parentheses); for Percent Change of Adhesion: donor 140 (second line), lower part of Table 4
Experimental: Leukocyte adherence can be measured using several assays known in the art, and the preferred assay is described by Charo, et al., 1985, Blood, 65:473. Briefly, the assay consists of labelling leukocytes with an appropriate label, incubating them with endothelial cells and determining the number of leukocytes that adhere. Preferably the cells are labelled with a gamma ray emitting isotope and the preferred labels are ^111 Indium-oxide or ^51 chromium.
Leukocytes may be isolated from human donors using standard techniques. This generally consists of isolating blood in a physiologically balanced salt solution containing an appropriate anticoagulant, and separating the leukocytes by an appropriate separation step, preferably on Ficoll-Hypaquegradients. Contaminating erythrocytes can be removed by hypotonic lysis. The resulting leukocytes are suspended in a physiologically buffered solution, pH 7.4. The preferred physiological buffered solution is Hank's balanced salt solution that is calcium and magnesium free.
The isolated leukocytes can then be labelled by incubating them for an appropriate time, generally 15 minutes, with the desired radioisotope at a predetermined concentration. The radiolabelled cells are washed to remove unincorporated label, and then suspended in an appropriate solution to perform the adhesion assay described below.
Endothelial cells can be prepared from a number of sources and by several techniques known in the art. Preferably they are obtained from human umbilical veins using the procedure of Charo et al., above. Generally, endothelial cells are isolated by enzymatic digestion of the umbilical veins using, preferably, collagenase as described by Jaffe, E. A., et al., 1973, J. of Clin. Invest, 52:2745. The cells are grown on an appropriate tissue culture substratum, preferably gelatine-coated surfaces.
The endothelial cells may be grown in a variety of tissue culture media containing appropriate supplements such as an appropriate concentration of fetal calf serum, and other supplements/additives routinely utilized by those skilled in this art that are recognized as being favorable for endothelial cells. The endothelial cells may be passaged with a dilute solution of an appropriate protease, and if desired a metal ion chelator. Preferably a solution consisting of 0.05 to 0.25% trypsin and 0.02% EDTA is used. To ensure that the cells are indeed endothelial cells, they are tested by immunofluorescence for Factor VIII antigen, a known endothelial cell marker.
Leukocyte adherence to endothelial cell monolayers may be determined as follows. Early passage endothelial cells, generally not beyond the fifth passage, are cultured on an appropriate substratum and in a suitable cell culture medium. The culture substratum is preferably pre-coated with an appropriate substance that enhances the adherence of the endothelial cells. Several such substances are known including fibronectin, poly-L-lysine, gelatin and laminin. Fibronectin is preferred. An appropriate culture substratum is a 96 well micro titer plate, and a suitable medium is Medium 199 containing fetal calf serum and other supplements known to be beneficial for the growth and maintenance of endothelial cells that are well known to those skilled in the art. Prior to adding a predetermined number of labelled leukocytes, the endothelial cell monolayer is washed with a physiologically balanced salt solution containing a reduced amount of fetal calf serum, preferably 1%. The preferred solution is RPMI supplemented with 1% fetal calf serum.
The endothelial cell monolayer containing added leukocytes is incubated for a time sufficient to permit maximum adherence of the leukocytes, and preferably this is conducted at 37° C. for 30 minutes in an appropriate cell culture atmosphere. Generally this would consist of growing and incubating the cells for the assay period in 5% CO2, 95% air, and 95% humidity. […]

AHKLAENNIQPIFAVT [Peptide 2-16, NH2 --Ala--His--Lys--Leu--Ala--Glu--Asn--Asn--Ile--Gln--Pro--Ile--Phe--Ala--Val--Thr--COOH]
Average % Change of PMN Adhesion to TNF Activated ECs (10^-4 M): -7%
Average % Change of PMN Adhesion to TNF Activated ECs (10^-6 M): -1%
Average % Change of PMN Adhesion to TNF Activated ECs (10^-8 M): -2%

CRIARLEEKVKTLKAQNSELASTANMLREQVAQLKQKVMNHA [WT, NH2 --Cys--Arg--Ile--Ala--Arg--Leu--Glu--Glu--Lys--Val--Lys--Thr--Leu--Lys--Ala--Gln--Asn--Ser--Glu--Leu--Ala--Ser--Thr--Ala--Asn--Met--Leu--Arg--Glu--Gln--Val--Ala--Gln--Leu--Lys--Gln--Lys--Val--Met--Asn--His--Ala--COOH, reference compound]
activity on PMN adhesion at 10^-4 M (in words) (10^-4 M): inhibited polymorphonuclear leukocyte adhesion
Average % Change of PMN Adhesion to TNF Activated ECs (10^-4 M): -54%
Average % Change of PMN Adhesion to TNF Activated ECs (10^-5 M): 0%
Average % Change of PMN Adhesion to TNF Activated ECs (10^-6 M): +22%
Average % Change of PMN Adhesion to TNF Activated ECs (10^-7 M): +8%
Average % Change of PMN Adhesion to TNF Activated ECs (10^-8 M): -15%

DAPEGGLDAMMQVA [Peptide 5-14, NH2 --Asp--Ala--Pro--Glu--Gly--Gly--Leu--Asp--Ala--Met--Met--Gln--Val--Ala--COOH]
Average % Change of PMN Adhesion to TNF Activated ECs (10^-4 M): +9%
Average % Change of PMN Adhesion to TNF Activated ECs (10^-6 M): +7%
Average % Change of PMN Adhesion to TNF Activated ECs (10^-8 M): 0%

DGFHFAGDGKLGAI [Peptide 4-14, NH2 --Asp--Gly--Phe--His--Phe--Ala--Gly--Asp--Gly--Lys--Leu--Gly--Ala--Ile--COOH]
inhibitory activity in the PMN adhesion assay (in words): little activity
Average % Change of PMN Adhesion to TNF Activated ECs (10^-4 M): -9%
Average % Change of PMN Adhesion to TNF Activated ECs (10^-5 M): +28%
Average % Change of PMN Adhesion to TNF Activated ECs (10^-6 M): -4%
Average % Change of PMN Adhesion to TNF Activated ECs (10^-7 M): +12%
Average % Change of PMN Adhesion to TNF Activated ECs (10^-8 M): -6%

IGWRNVTRLLVFATD [Peptide 4-15, NH2 --Ile--Gly--Trp--Arg--Asn--Val--Thr--Arg--Leu--Leu--Val--Phe--Ala--Thr--Asp--COOH]
concentration of peak inhibitory activity in the PMN adhesion assay: 10^4 to 10^-5 M
inhibitory activity in the PMN adhesion assay (in words): active
Percent Change of Adhesion (10^-5 M (first column (so in the source))): -53%
Percent Change of Adhesion, Average (10^-5 M, average of donors 140, 195, 363, 515, 140): -5 ± 3%
Percent Change of Adhesion (10^-5 M): 0%
Percent Change of Adhesion, Average (10^-6 M, average of donors 140, 195, 363, 515, 140): -6 ± 2%
Percent Change of Adhesion, Average (1000.0): -17 ± 2%
Percent Change of Adhesion, Average (100000.0): -58 ± 7%

KTVLPFVNTHPDKLRN [Peptide 6-16, NH2 --Lys--Thr--Val--Leu--Pro--Phe--Val--Asn--Thr--His--Pro--Asp--Lys--Leu--Arg--Asn--COOH]
Average % Change of PMN Adhesion to TNF Activated ECs (10^-4 M): +6%
Average % Change of PMN Adhesion to TNF Activated ECs (10^-6 M): -11%
Average % Change of PMN Adhesion to TNF Activated ECs (10^-8 M): -25%

RIARLEEKVKTLKAENSELASTANMLREEVAQLEQEVMNHA [Peptide 2X, NH2 --Arg--Ile--Ala--Arg--Leu--Glu--Glu--Lys--Val--Lys--Thr--Leu--Lys--Ala--Glu--Asn--Ser--Glu--Leu--Ala--Ser--Thr--Ala--Asn--Met--Leu--Arg--Glu--Glu--Val--Ala--Gln--Leu--Glu--Gln--Glu--Val--Met--Asn--His--Ala--COOH, reference compound]
concentration range over which the peptide had activity on PMN adhesion: 10^-4 to 10^-8 M
Average % Change of PMN Adhesion to TNF Activated ECs (10^-4 M): -38%
Average % Change of PMN Adhesion to TNF Activated ECs (10^-5 M): -1%
Average % Change of PMN Adhesion to TNF Activated ECs (10^-7 M): -23%
Average % Change of PMN Adhesion to TNF Activated ECs (10^-8 M): -20%

RIARLKEKVKTLKAKNSELASTANMLREQVAQLKQKVMNHA [JUN-k, NH2 --Arg--Ile--Ala--Arg--Leu--Lys--Glu--Lys--Val--Lys--Thr--Leu--Lys--Ala--Lys--Asn--Ser--Glu--Leu--Ala--Ser--Thr--Ala--Asn--Met--Leu--Arg--Glu--Gln--Val--Ala--Gln--Leu--Lys--Gln--Lys--Val--Met--Asn--His--Ala--COOH, reference compound]
activity on PMN adhesion at 10^-4 M (in words) (10^-4 M): inhibited polymorphonuclear leukocyte adhesion
Average % Change of PMN Adhesion to TNF Activated ECs (10^-4 M): -25%
Average % Change of PMN Adhesion to TNF Activated ECs (10^-5 M): -15%
Average % Change of PMN Adhesion to TNF Activated ECs (10^-6 M): +3%
Average % Change of PMN Adhesion to TNF Activated ECs (10^-7 M): -7%

SSNVVHLIKNAYNKLSS [Peptide 3-17, NH2 --Ser--Ser--Asn--Val--Val--His--Leu--Ile--Lys--Asn--Ala--Tyr--Asn--Lys--Leu--Ser--Ser--COOH]
Average % Change of PMN Adhesion to TNF Activated ECs (10^-4 M): -13%
Average % Change of PMN Adhesion to TNF Activated ECs (10^-5 M): +43%
Average % Change of PMN Adhesion to TNF Activated ECs (10^-6 M): +13%
Average % Change of PMN Adhesion to TNF Activated ECs (10^-7 M): -18%
Average % Change of PMN Adhesion to TNF Activated ECs (10^-8 M): -7%

SYSMLDDLRNVKKLG [Peptide 1-15, NH2 --Ser--Tyr--Ser--Met--Leu--Asp--Asp--Leu--Arg--Asn--Val--Lys--Lys--Leu--Gly--COOH]
Average % Change of PMN Adhesion to TNF Activated ECs (10^-4 M): -24%
Average % Change of PMN Adhesion to TNF Activated ECs (10^-6 M): -9%
Average % Change of PMN Adhesion to TNF Activated ECs (10^-8 M): -4%
